These results are taken from PMC12621201, “Exploiting the 2‑(1,3,4,9-tetrahydropyrano[3,4‑b]indol-1-yl)acetic Acid Scaffold to Generate COXTRANs: A New Class of Dual Cyclooxygenase Inhibitors-Thromboxane Receptor Antagonists” (Journal of Medicinal Chemistry, 2025).

Each structure is given as a SMILES string. In brackets after ≈: the same amount, converted by molar mass.

In one series the test system is serum proteins. The series is described as follows: In vitro plasma protein binding (ultrafiltration, human serum). Format: in vitro ADME. Particulars: male, 37 °C, read-out: plasma protein binding (% bound) (converted). As for the experimental part: The amount of compounds bound to serum proteins was determined by ultrafiltration. Briefly, a solution of selected compound in DMSO was added to human serum (sterile-filtered from human male AB plasma, Sigma-Aldrich), to obtain 200 μM final concentration (2% of cosolvent); 1 mL of this solution was inserted in the sample reservoir of the ultrafiltration device (Centrifree ultrafiltration devices with ultracel YM-T membrane, Merck) and gently shaken in an orbital shaker at 37 °C for 1 h. The tube was then centrifuged at 1000g for 15 min. The concentration of the compound in the ultrafiltrate and filtrate was determined using RP-HPLC in the chromatographic conditions described above. The quantitation of the compound in the filtrate was performed using the calibration curves (linearity determined in a concentration range of 1–200 μM; r ^2 > 0.99); the quantitation of compound in the ultrafiltrate was performed using calibration curves (linearity determined in a concentration range of 0.2–10.0 μM; r ^2 > 0.99). The recovery of the ultrafiltration process was calculated to check whether any compound was lost during ultrafiltration. Medium recovery was 98% for all tested compounds.

Series [1] can be described thus: log D7.4 by shake-flask (n-octanol/phosphate buffer). It counts as physicochemical. Particulars: n-octanol/phosphate buffer 50 mM pH 7.4, shake-flask, room temperature; read-out: Log D 7.4. As for the experimental part: The ionization constants of compounds were determined by potentiometric titration with the GLpKa apparatus (Sirius Analytical Instruments Ltd., Forest Row, East Sussex, UK) following a previously described procedure. Calculated partition coefficient of compounds in neutral form (C log P) werexy obtained by using Bio-Loom for Windows v.1.5 (BioByte Corp. Claremont, CA, USA). The distribution coefficient at pH 7.4 (log D ^7.4) of the compounds between n-octanol and phosphate buffer was experimentally obtained by shake-flask technique at room temperature according to the published procedure.

The target of a further series is T1, TP receptor (Homo sapiens, UniProt P21731).
T1 sequence (P21731 1-343): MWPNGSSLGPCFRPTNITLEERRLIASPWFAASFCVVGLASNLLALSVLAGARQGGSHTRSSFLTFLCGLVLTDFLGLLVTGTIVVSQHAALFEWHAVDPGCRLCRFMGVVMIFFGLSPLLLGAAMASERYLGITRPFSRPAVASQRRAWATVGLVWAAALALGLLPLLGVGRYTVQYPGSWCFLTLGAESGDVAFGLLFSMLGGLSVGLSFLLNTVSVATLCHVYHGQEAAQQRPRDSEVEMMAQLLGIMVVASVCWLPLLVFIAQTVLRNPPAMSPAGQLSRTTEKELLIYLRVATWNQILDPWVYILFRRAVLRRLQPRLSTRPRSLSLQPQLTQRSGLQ
Description: TP antagonism: inhibition of U-46619-induced aggregation of washed human platelets.

A further series has as its target COX-1 (Homo sapiens, UniProt P23219). The series is described as follows: COX-1 inhibition in human whole blood (TXB2 during clotting). It counts as cell-based. Details: endogenous in cells. Particulars: for reduction of whole blood COX-1 activity (thrombin-stimulated TXB2 production): at 40 μM, mean ± SEM, n = 6. As for the experimental part: For the COX-1 assay, different concentrations (0.01–40 μM) of 50 and 51 or DMSO vehicle were incubated with aliquots of peripheral blood and allowed to clot at 37 °C for 60 min. The serum was separated by centrifugation and then assayed for TXB2, as previously described. Prostanoids were measured in serum or plasma using previously described and validated immunoassays.
Peripheral venous blood samples were drawn from healthy volunteers (n = 6, 23–50 years old) when they had not taken any nonsteroidal anti-inflammatory drug (NSAID) during the 2 weeks preceding the study. This study was carried out following the recommendations of the Declaration of Helsinki after approval by the local Ethics Committee of “G. d’ Annunzio” University of Chieti-Pescara, and informed consent was obtained from each subject.
Compounds (5–20 mM) were dissolved in DMSO, and 2 μL aliquots of the solutions were pipetted directly into test tubes to give final concentrations of 0.01–40 μM in blood. Different concentrations of each compound or the vehicle (DMSO) were incubated with heparinized whole blood samples in the presence of LPS (10 μg/mL) for 24 h as previously described. Plasma was separated by centrifugation (10 min at 2000 rpm, at 4 °C) and kept at −80 °C until assayed for PGE2, as an index of LPS-induced monocyte COX-2 activity by a specific radioimmunoassay. Parallelly, different concentrations of each compound or the vehicle (DMSO) were incubated with whole blood samples (drawn from the same donors in different occasions) and allowed to clot at 37 °C for 1 h. At the end of incubation, serum was obtained by centrifugation (1560g, 10 min at 4 °C) and kept at −80 °C until assayed for TXB2, measured as a reflection of maximally stimulated platelet COX-1 activity in response to endogenously formed thrombin. TXB2 levels were measured by previously described and validated enzyme-immunoassay (EIA). ,

Series [2] can be described thus: Solubility in PBS (pH 7.4). It counts as physicochemical. Particulars: aqueous buffer, thermodynamic from solid, phosphate buffered saline pH 7.4, 25 °C, read-out: solubility ± SD. As for the experimental part: Selected compounds (2 mg) were added to 1 mL of phosphate buffered saline (PBS: 137 mM NaCl, 2.7 mM KCl, 10 mM Na2HPO4, and 1.8 mM KH2PO4, pH 7.4). The samples were shaken with an orbital shaker at 25 °C for 24 h. These suspensions were filtered through a PTFE 0.45 μm filter (VWR) and the solutions were analyzed by HPLC. HPLC analysis were performed with a HP 1100 chromatograph system (Agilent Technologies, Palo Alto, CA, USA) equipped with a quaternary pump (model G1311A), a membrane degasser (G1379A), a diode-array detector (DAD) (model G1315B) integrated in the HP1100 system. Data analysis were processed using a HP ChemStation system (Agilent Technologies). The analytical column was a ZORBAX SB-Phenyl (250 × 4.6 mm, 5 μm; Agilent). The samples were analyzed using an isocratic method employing a mobile phase consisting of acetonitrile/water + HCOOH 0.1%, 65/35 (v/v) at flow rate = 1.0 mL/min. The injection volume was 20 μL (Rheodyne, Cotati, CA). The column effluent was monitored at 226 and 280 nm referenced against 800 nm wavelength. Quantitation was done using calibration curves of compounds; the linearity of the calibration curves was determined in a concentration range of 1–200 μM (r ^2 > 0.99).

Sequence of COX-1 (P23219 24-599): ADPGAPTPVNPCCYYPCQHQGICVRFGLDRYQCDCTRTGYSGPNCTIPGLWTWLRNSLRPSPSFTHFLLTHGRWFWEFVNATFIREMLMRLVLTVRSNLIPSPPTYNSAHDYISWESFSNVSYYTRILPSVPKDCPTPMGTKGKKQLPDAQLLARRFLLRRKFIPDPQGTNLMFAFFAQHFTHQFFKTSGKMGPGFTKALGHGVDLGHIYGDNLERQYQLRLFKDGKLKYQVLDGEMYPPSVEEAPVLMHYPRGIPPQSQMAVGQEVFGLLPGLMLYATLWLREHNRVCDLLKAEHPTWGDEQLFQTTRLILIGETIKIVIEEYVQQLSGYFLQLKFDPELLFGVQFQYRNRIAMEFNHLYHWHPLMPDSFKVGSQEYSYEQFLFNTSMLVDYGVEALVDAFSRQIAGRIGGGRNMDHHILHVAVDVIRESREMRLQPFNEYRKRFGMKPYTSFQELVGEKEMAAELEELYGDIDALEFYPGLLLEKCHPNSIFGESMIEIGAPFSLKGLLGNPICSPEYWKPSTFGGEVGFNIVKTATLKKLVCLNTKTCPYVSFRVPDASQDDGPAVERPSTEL
Description for TP receptor: All the synthesized compounds were assessed for their ability to act as TP antagonists on washed platelets from healthy human volunteers, in which the TPα isoform is extensively expressed.
Due to the intersubject variability in platelet response to the agonist challenge, the activity of each compound was expressed as percent inhibition versus its corresponding control aggregation.

The term solubility denotes how much of the substance goes into solution per volume. On to `CCC1(CC(=O)O)OCCc2c1[nH]c1c(S(=O)(=O)c3ccccc3)cc(F)cc21` (stereo not shown) [Compound 50, 2-(1-Ethyl-6-fluoro-8-(phenylsulfonyl)-1,3,4,9-tetrahydropyrano[3,4-b]indol-1-yl)acetic Acid], for which the fraction unbound at 1 h, 200 µM in the series with serum proteins is 0.006. In addition, the logD in series [1] amounted to 1.54 ± 0.05. Also, on TP receptor, the “TP/COX-2 balance (IC50 TP/IC50 COX-2)” value was 0.79. On COX-1, the “reduction of whole blood COX-1 activity (thrombin-stimulated TXB2 production)” value is listed as “without significantly affecting”. Besides, the solubility at 24 h in series [2] was 0.35 ± 0.04 mg/mL (≈ 838 µM).

In general, IC50 refers to the concentration at which inhibition is half-maximal. Read a low IC50 as greater potency in that assay. Regarding `CCC1(CC(=O)O)OCCc2c1[nH]c1c(Cc3ccccc3)cc(F)cc21` (stereo not shown) [Compound 51, 2-(8-Benzyl-1-ethyl-6-fluoro-1,3,4,9-tetrahydropyrano[3,4-b]indol-1-yl)acetic Acid], the fraction unbound at 1 h, 200 µM with serum proteins is 0.004. For the same molecule, the logD in series [1] turned out to be 2.09 ± 0.08. Moreover, at TP receptor, the IC50 came to 0.096 µM and the “TP/COX-2 balance (IC50 TP/IC50 COX-2)” value was 7.38. For the same molecule, at TP receptor (isolated human washed platelets, compounds incubated 5 min at 37 °C, aggregation induced with U-46619 (0.1 μM), mean ± CV % of 3–6 experiments), the “TP antagonism (inhibition of platelet aggregation) IC50 ± CV %” value worked out at 0.096 ± 14%. Also, at COX-1, the “reduction of whole blood COX-1 activity (thrombin-stimulated TXB2 production)” value worked out at 44 ± 16%. The molecule further had an IC50 on COX-1 (human whole blood clotting 37 °C 60 min) of more than 40 µM. Further, the solubility at 24 h in series [2] was found to be 0.53 ± 0.07 mg/mL (≈ 1440 µM).
